Measurements taken from article PMC8584303 (International Journal of Molecular Sciences, 2021).

How the values were obtained:
LdGSTu1 [1] = target: T1, LdGSTu1 (Leptinotarsa decemlineata, UniProt A0A1P8PEY0); assay: steady-state enzyme kinetics of the purified enzyme (Km); type: biochemical
T1 construct: full-length LdGSTu1
T1 sequence (A0A1P8PEY0 1-230): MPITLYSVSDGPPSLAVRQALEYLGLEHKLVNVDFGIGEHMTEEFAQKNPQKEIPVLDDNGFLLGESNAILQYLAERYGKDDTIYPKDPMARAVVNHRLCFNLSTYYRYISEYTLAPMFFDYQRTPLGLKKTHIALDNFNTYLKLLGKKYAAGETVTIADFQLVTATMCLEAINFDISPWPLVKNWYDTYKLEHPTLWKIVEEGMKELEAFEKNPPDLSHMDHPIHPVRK

LdGSTu1 [2] = target: T1, LdGSTu1; assay: inhibition of GSH-CDNB conjugation by the recombinant enzyme (residual activity […] at […], […] at […]); type: biochemical
LdGSTu1 [3] = target: T1, LdGSTu1; assay: inhibition of GSH-CDNB conjugation by the recombinant enzyme (residual activity at […]); type: biochemical
[4] = substrate: CC(=O)Oc1ccc([N+](=O)[O-])cc1; assay: steady-state enzyme kinetics of the purified enzyme (Km); type: biochemical, Leptinotarsa decemlineata; settings: GSH

Work on `O=[N+]([O-])c1ccc(Cl)c([N+](=O)[O-])c1` [CDNB, 1-chloro-2,4-dinitrobenzene] yielded a Km (LdGSTu1 [1]) of 542 ± 88 µM.

`C=C(CC)C(=O)c1ccc(OCC(=O)O)c(Cl)c1Cl` [EA, ethacrynic acid] was tested, and the “%” value (LdGSTu1 [2]) was 49.6% residual activity at 200 µM.

`C/C(=N\C#N)N(C)Cc1ccc(Cl)nc1` [acetamiprid] was tested, and the “%” value (LdGSTu1 [3]) was 39.1% residual activity at 5 mM.

With `CCOP(=S)(OCC)Oc1nc(Cl)c(Cl)cc1Cl` [chlorpyrifos] the “%” value (LdGSTu1 [3]) was 70.5% residual activity at 5 mM.

`CCOP(=S)(OCC)Oc1cc(C)nc(C(C)C)n1` [diazinon] was tested, and the “%” value (LdGSTu1 [3]) was 75.3% residual activity at 5 mM.

In the case of `O=[N+]([O-])NC1=NCCN1Cc1ccc(Cl)nc1` [imidacloprid], the “%” value (LdGSTu1 [3]) is reported as 66.4% residual activity at 5 mM.

`CN1COCN(Cc2cnc(Cl)s2)/C1=N\[N+](=O)[O-]` [thiamethoxam] was tested, and the “%” value (LdGSTu1 [3]) was 72.3% residual activity at 5 mM.

B1: LdGSTu1 (Leptinotarsa decemlineata) (protein)
chain: T1 sequence (A0A1P8PEY0 1-230)
notes: full-length LdGSTu1
With B1 the Km [4] was 1830 ± 572 µM, the Vmax [4] was 13.5 µM/min and the kcat [4] was 0.128 ± 0.0202 s⁻¹. For the same molecule, the kcat/Km [4] was 70 M⁻¹ s⁻¹.
